Data as given in PubChem BioAssay AID248 (DTP/NCI, 2004).
Values joined by “and” are separate entries in the source; they are usually repeats but may differ in a detail not shown here. Equal values may be shown once. Toxic doses and inconclusive results are not listed.

Test system: L1210 leukemia ip in BDF1 mice, survival T/C
Assay: NCI In Vivo Anticancer Drug Screen. Data for tumor model L1210 Leukemia (intraperitoneal) in B6D2F1 (BDF1) mice
Settings: endpoint: mean survival time, higher = longer survival
Method in brief: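 Ratio derived from survival: compound-dosed mice over vehicle-dosed mice, all bearing a transplantable tumor.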

[1] = dose: 100.0 mg/kg/injection, schedule: Q01DX001 (ip), vehicle: saline
[2] = dose: 100.0 mg/kg/injection, schedule: Q04DX003 (ip), vehicle: Klucel (hydroxypropylcellulose) (HPC)
[3] = dose: 200.0 mg/kg/injection, schedule: Q01DX001 (ip), vehicle: saline
[4] = dose: 50.0 mg/kg/injection, schedule: Q01DX001 (ip), vehicle: saline
[5] = dose: 400.0 mg/kg/injection, schedule: Q01DX001 (ip), vehicle: saline

With `N#CCCCCCCN=[N+]=[N-]` the T/C (dose: 37.5 mg/kg/injection, schedule: Q04DX003 (ip), vehicle: saline) was 106 % of control, the T/C (dose: 75.0 mg/kg/injection, schedule: Q04DX003 (ip), vehicle: saline) was 101 % of control and the T/C (dose: 150.0 mg/kg/injection, schedule: Q04DX003 (ip), vehicle: saline) was 102 % of control.
In the case of `[O-][n+]1cc(-c2ccccc2)cc2ccccc21`, the T/C [1] is reported as 96 % of control.
With `CC(C)(C)C1CN1C(=S)Nc1ccccc1` (stereo not given) the T/C [2] was 104 % of control, the T/C (dose: 200.0 mg/kg/injection, schedule: Q04DX003 (ip), vehicle: Klucel (hydroxypropylcellulose) (HPC)) was 105 % of control and the T/C (dose: 400.0 mg/kg/injection, schedule: Q04DX003 (ip), vehicle: Klucel (hydroxypropylcellulose) (HPC)) was 102 % of control.
For `CS(=O)(=O)OC12CC3CC(CC(C3)C1)C2`, the T/C (dose: 50.0 mg/kg/injection, schedule: Q01DX009 (ip), vehicle: saline) was 96 % of control, the T/C [1] was 90 % of control and the T/C (dose: 100.0 mg/kg/injection, schedule: Q01DX009 (ip), vehicle: saline) was 96 % of control. The T/C [3] was 98 % of control and the T/C (dose: 200.0 mg/kg/injection, schedule: Q01DX009 (ip), vehicle: saline) was 94 % of control.
For `COc1ccc(NC(=O)Nc2c(C)cccc2C)cc1`, the T/C (dose: 100.0 mg/kg/injection, schedule: Q01DX009 (ip), vehicle: gum acacia) was 97 % of control, the T/C (dose: 100.0 mg/kg/injection, schedule: Q04DX003 (ip), vehicle: gum acacia) was 97 % of control and the T/C (dose: 200.0 mg/kg/injection, schedule: Q01DX009 (ip), vehicle: gum acacia) was 97 % of control. For the same compound, the T/C (dose: 200.0 mg/kg/injection, schedule: Q04DX003 (ip), vehicle: gum acacia) was 92 % of control, the T/C (dose: 400.0 mg/kg/injection, schedule: Q01DX009 (ip), vehicle: gum acacia) was 92 % of control and the T/C (dose: 400.0 mg/kg/injection, schedule: Q04DX003 (ip), vehicle: gum acacia) was 91 % of control.
`COc1c(Br)cc(N=Cc2ccc(N(CCCl)CCCl)cc2C)cc1Br` was tested, and the T/C (dose: 100.0 mg/kg/injection, schedule: Q01DX001 (ip), vehicle: carboxymethylcellulose (CMC)) was 98 % of control, the T/C (dose: 200.0 mg/kg/injection, schedule: Q01DX001 (ip), vehicle: carboxymethylcellulose (CMC)) was 107 % of control and the T/C (dose: 400.0 mg/kg/injection, schedule: Q01DX001 (ip), vehicle: carboxymethylcellulose (CMC)) was 110 % of control.
In the case of `NC(N)=NC=O`, the T/C (dose: 100.0 mg/kg/injection, schedule: Q04DX002 (ip), vehicle: saline with Tween-80) is reported as 105 % of control and the T/C (dose: 200.0 mg/kg/injection, schedule: Q04DX002 (ip), vehicle: saline with Tween-80) is reported as 98 % of control.
With `C#CCN(CC#C)CC#C` the T/C (dose: 25.0 mg/kg/injection, schedule: Q04DX003 (ip), vehicle: saline) was 103 % of control and the T/C (dose: 50.0 mg/kg/injection, schedule: Q04DX003 (ip), vehicle: saline) was 94 % of control.
With `O=C(Cc1ccc2c(c1)OCO2)c1cn(C(=O)Cc2ccc3c(c2)OCO3)c2ccccc12` the T/C [4] was 108 % of control, the T/C [1] was 102 % of control and the T/C [3] was 93 % of control. The T/C [5] was 96 % of control.
For `c1cc[c]([Sn]([S]c2nc3ccccc3s2)([c]2ccccc2)[c]2ccccc2)cc1`, the T/C (dose: 5.0 mg/kg/injection, schedule: Q04DX002 (ip), vehicle: saline with Tween-80) was 104 % of control, the T/C (dose: 10.0 mg/kg/injection, schedule: Q04DX002 (ip), vehicle: saline with Tween-80) was 97 % of control and the T/C (dose: 20.0 mg/kg/injection, schedule: Q04DX002 (ip), vehicle: saline with Tween-80) was 97 % of control.
With `O=NN(CCCl)C(=O)NC1CCS(=O)(=O)CC1` the T/C (dose: 6.0 mg/kg/injection, schedule: Q01DX001 (ip), vehicle: carboxymethylcellulose (CMC)) was 228 % of control, the T/C (dose: 7.5 mg/kg/injection, schedule: Q01DX001 (ip), vehicle: carboxymethylcellulose (CMC)) was 313 % of control and the T/C (dose: 8.0 mg/kg/injection, schedule: Q01DX001 (ip), vehicle: carboxymethylcellulose (CMC)) was 235 % of control. For the same compound, the T/C (dose: 11.4 mg/kg/injection, schedule: Q01DX001 (ip), vehicle: carboxymethylcellulose (CMC)) was 337 % of control, the T/C (dose: 12.0 mg/kg/injection, schedule: Q01DX001 (ip), vehicle: carboxymethylcellulose (CMC)) was 211 % of control and 319 % of control and the T/C (dose: 17.0 mg/kg/injection, schedule: Q01DX001 (ip), vehicle: carboxymethylcellulose (CMC)) was 337 % of control. The T/C (dose: 18.0 mg/kg/injection, schedule: Q01DX001 (ip), vehicle: carboxymethylcellulose (CMC)) was 319 % of control and the T/C (dose: 37.0 mg/kg/injection, schedule: Q01DX001 (ip), vehicle: carboxymethylcellulose (CMC)) was 93 % of control and 105 % of control.
In the case of `COC(c1ccccc1)c1ccccc1`, the T/C [4] is reported as 109 % of control, the T/C [1] is reported as 94 % of control and the T/C [3] is reported as 100 % of control. For the same compound, the T/C [5] was 94 % of control.
In the case of `Nc1cccc(/C=C/C=C\c2cccc([N+](=O)[O-])c2)c1`, the T/C [1] is reported as 97 % of control, the T/C [3] is reported as 94 % of control and the T/C [5] is reported as 92 % of control.
`C=C1C(=O)OC2/C=C(/CO)C3OC3C3OC3(C)CC(OC(=O)/C(C)=C\COC(C)=O)C12` (stereo not given) was tested, and the T/C (dose: 25.0 mg/kg/injection, schedule: Q04DX003 (ip), vehicle: Klucel (hydroxypropylcellulose) (HPC)) was 98 % of control, the T/C (dose: 50.0 mg/kg/injection, schedule: Q04DX003 (ip), vehicle: Klucel (hydroxypropylcellulose) (HPC)) was 104 % of control and the T/C [2] was 94 % of control and 89 % of control.
